US20080293646A1, “MACROLIDES” (Pfizer Inc, priority 2007, published 2008)
Converted amounts (≈) assume the structure as drawn. Counter-ions that a name gives are not always drawn. Like-named read-outs stand apart in the source and are kept apart here.

Assays:
[1] = system: S. pneumoniae mefA; assay: MIC, microtiter broth dilution, S. pneumoniae mefA isolates; format: cell-based, Streptococcus pneumoniae; settings: for MIC50 / MIC90: Streptococcus pneumoniae
[2] = system: L. pneumophila; assay: microbe, parasite or virus in culture; format: cell-based, Legionella pneumophila; settings: for MIC Range: L. pneumophila, n=10 isolates; for MIC50 / MIC90: Legionella pneumophila
[3] = system: H. influenzae Telithromycin (susceptible); assay: MIC, microtiter broth dilution, telithromycin-susceptible H. influenzae; format: cell-based, Haemophilus influenzae; settings: for MIC50 / MIC90: Haemophilus influenzae
[4] = system: M. catarrhalis; assay: MIC, microtiter broth dilution, M. catarrhalis; format: cell-based, Moraxella catarrhalis; settings: for MIC50 / MIC90: Moraxella catarrhalis
[5] = HLM ER (human liver microsomes extraction ratio); format: in vitro ADME; settings: 1 μM compound, NADPH, 37° C., <0.32 is lower limit of assay
Protocol: HLM ER: (human liver microsomes extraction ratio). This assay measures clearance of compound over time in the human liver microsome system due to NADPH-dependent oxidative metabolism. […] Assay Procedure: […] The reaction mixture was pre-incubated at 37° C. for 5 minutes before adding betanicotinamide adenine dinucleotide phosphate—reduced tetrasodium salt (NADPH) (1.0 mM). Aliquots of the incubation mixture were removed at 0, 5, 10, 20, 30 and 45 minutes. The aliquots were quenched in acetonitrile containing internal standard. Samples were centrifuged and the resulting supernatant analyzed by liquid chromatography/mass spectrometry (LC/MS/MS), with a Sciex API4000 using multiple reaction monitoring optimized for each test compound. […] The first order disappearance rate constant was determined for each incubation by plotting natural log(LN) substrate concentration (peak area ratio, drug/internal standard) against incubation time and determining the slope of the regression line (k), using data where an accurate first order decay curve could be obtained. Predicted hepatic clearances (CLH) and extraction ratios were calculated according to the following equations: […] where the following constants were: Liver Weight=21 g/kg [human] Microsomal Protein in Incubation=1.52 mg/mL Liver Protein=45 mg/g [human] Liver Blood Flow (QH)=20 mL/min/kg [human]

[6] = system: S. pyogenes mefA; assay: MIC, microtiter broth dilution, S. pyogenes mefA isolates; format: cell-based, Streptococcus pyogenes; settings: for MIC50 / MIC90: Streptococcus pyogenes
[7] = system: H. influenzae Telithromycin (intermediate); assay: MIC, microtiter broth dilution, telithromycin-intermediate H. influenzae; format: cell-based, Haemophilus influenzae; settings: for MIC50 / MIC90: Haemophilus influenzae
[8] = system: S. pneumoniae emB/mefA; assay: MIC, microtiter broth dilution, S. pneumoniae ermB/mefA isolates; format: cell-based, Streptococcus pneumoniae; settings: for MIC50 / MIC90: Streptococcus pneumoniae
[9] = molecular target: CYP3A (Homo sapiens, UniProt P08684); assay: CYP3A time-dependent inhibition in human liver microsomes (midazolam probe); settings: pooled human liver microsomes, pH 7.4, probe midazolam (30 μM, 1'-hydroxymidazolam formation)
[10] = system: S. pneumoniae ermB; assay: MIC, microtiter broth dilution, S. pneumoniae ermB isolates; format: cell-based, Streptococcus pneumoniae; settings: for MIC50 / MIC90: Streptococcus pneumoniae
[11] = S. pneumoniae mefA, n=39 isolates
[12] = H. influenzae telithromycin (susceptible), n=82 isolates
[13] = S. pyogenes mefA, n=23 isolates
[14] = H. influenzae telithromycin (intermediate), n=12 isolates
[15] = S. pneumoniae emB/mefA, n=45 isolates
[16] = S. pneumoniae ermB, n=34 isolates
[17] = S. pyogenes mefA, n=23 isolates, read-out: MIC50
[18] = S. pyogenes mefA, n=23 isolates, read-out: MIC90
[19] = S. pneumoniae mefA, n=39 isolates, read-out: MIC90
[20] = H. influenzae telithromycin (susceptible), n=82 isolates, read-out: MIC50
[21] = H. influenzae telithromycin (susceptible), n=82 isolates, read-out: MIC90
[22] = M. catarrhalis, n=30 isolates, read-out: MIC90
[23] = H. influenzae telithromycin (intermediate), n=12 isolates, read-out: MIC50
[24] = H. influenzae telithromycin (intermediate), n=12 isolates, read-out: MIC90
[25] = S. pneumoniae emB/mefA, n=45 isolates, read-out: MIC50
[26] = S. pneumoniae emB/mefA, n=45 isolates, read-out: MIC90
[27] = S. pneumoniae ermB, n=34 isolates, read-out: MIC50
[28] = S. pneumoniae ermB, n=34 isolates, read-out: MIC90

Chain of CYP3A (P08684 2-503): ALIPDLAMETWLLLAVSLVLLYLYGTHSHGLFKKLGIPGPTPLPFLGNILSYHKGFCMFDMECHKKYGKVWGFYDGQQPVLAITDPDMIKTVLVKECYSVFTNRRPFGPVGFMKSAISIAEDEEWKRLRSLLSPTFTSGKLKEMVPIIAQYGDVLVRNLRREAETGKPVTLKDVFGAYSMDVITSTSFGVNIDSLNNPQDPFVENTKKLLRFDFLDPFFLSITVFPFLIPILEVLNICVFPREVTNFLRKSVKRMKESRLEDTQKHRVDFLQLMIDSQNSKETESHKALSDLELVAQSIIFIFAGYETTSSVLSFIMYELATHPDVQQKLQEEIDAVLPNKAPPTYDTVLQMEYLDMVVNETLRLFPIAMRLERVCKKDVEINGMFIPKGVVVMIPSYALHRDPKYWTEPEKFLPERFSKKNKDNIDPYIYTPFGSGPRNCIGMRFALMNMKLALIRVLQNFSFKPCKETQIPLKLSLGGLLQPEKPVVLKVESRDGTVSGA

Row | SMILES | MIC Range [1, 11] | MIC50 [1] | MIC Range [2] | MIC50 [2] | MIC90 [2] | MIC Range [3, 12] | MIC Range ([4]; M. catarrhalis, n=30 isolates) | MIC50 [4] | MIC Range [6, 13] | MIC Range [7, 14] | MIC Range [8, 15] | MIC Range [10, 16] | MIC50 [6, 17] | MIC90 [6, 18] | MIC90 [1, 19] | MIC50 [3, 20] | MIC90 [3, 21] | MIC90 [4, 22] | MIC50 [7, 23] | MIC90 [7, 24] | other results
1 | CC[C@H]1OC(=O)[C@H](C)C(=O)[C@H](C)[C@@H](O[C@@H]2O[C@H](C)C[C@H](N(C)C)[C@H]2O)[C@](C)(OC)C[C@@H](C)C(=O)[C@H](C)[C@H]2N(C3CN(Cc4c(O)cnc5cccnc45)C3)C(=O)O[C@]12C [Example 1, 3-Descladinosyl-11,12-dideoxy-6-O-methyl-3-oxo-12,11-(oxycarbonyl-(1-((3-hydroxy-[1,5]-naphthyridin-4-yl)methyl)-azetidin-3-yl)-imino)-erythromycin A Fumarate] | ≦0.06-1 μg/mL | 0.125 mg/L | 0.008 to 0.03 mg/L | 0.016 mg/L | 0.03 mg/L | 1 to 8 mg/L | 0.008 to 0.25 mg/L | 0.03 mg/L | 0.5 to 1 mg/L | 4 to 8 mg/L | ≦0.0625-1 μg/mL | ≦0.0625-2 μg/mL | – | – | – | – | – | – | – | – | MIC90 [1]: 0.5 mg/L; MIC50 [3]: 2 mg/L; MIC90 [3]: 4 mg/L; MIC90 [4]: 0.06 mg/L; HLM ER [5]: <0.32; MIC50 [6]: 0.5 mg/L; MIC90 [6]: 1 mg/L; MIC50 [7]: 4 mg/L; MIC90 [7]: 8 mg/L; MIC50 [8]: 0.5 mg/L; MIC90 [8]: 1 mg/L; Ki [9]: 24 µM; kinact [9]: 0.0004 s⁻¹; MIC50 [10]: ≤ 0.0625 mg/L; MIC90 [10]: 1 mg/L
2 | CC1(C)S[C@@H]2[C@H](NC(=O)[C@H](N)c3ccc(O)cc3)C(=O)N2[C@H]1C(=O)O [amoxicillin] | – | – | – | – | – | – | – | – | 0.004 to 0.03 mg/L | – | – | – | 0.008 mg/L (≈ 0.0219 µM) | 0.016 mg/L (≈ 0.0438 µM) | – | – | – | – | – | – | –
3 | CC[C@H]1OC(=O)[C@H](C)[C@@H](O[C@H]2C[C@@](C)(OC)[C@@H](O)[C@H](C)O2)[C@H](C)[C@@H](O[C@@H]2O[C@H](C)C[C@H](N(C)C)[C@H]2O)[C@](C)(O)C[C@@H](C)CN(C)[C@H](C)[C@@H](O)[C@]1(C)O [azithromycin] | – | – | 0.03 to 0.06 mg/L | 0.06 mg/L (≈ 0.0801 µM) | 0.06 mg/L (≈ 0.0801 µM) | – | – | – | – | – | – | – | – | – | – | – | – | – | – | – | –
4 | CC[C@H]1OC(=O)[C@H](C)[C@@H](O[C@H]2C[C@@](C)(OC)[C@@H](O)[C@H](C)O2)[C@H](C)[C@@H](O[C@@H]2O[C@H](C)C[C@H](N(C)C)[C@H]2O)[C@](C)(O)C[C@@H](C)C(=O)[C@H](C)[C@@H](O)[C@]1(C)O [erythromycin] | 2 to 16 mg/L | – | – | – | – | 1 to 16 mg/L | 0.03 to 1 mg/L | – | 8 to 32 mg/L | 8 to 16 mg/L | – | – | 8 mg/L (≈ 10.9 µM) | 16 mg/L (≈ 21.8 µM) | 16 mg/L (≈ 21.8 µM) | 8 mg/L (≈ 10.9 µM) | 16 mg/L (≈ 21.8 µM) | 0.25 mg/L (≈ 0.341 µM) | 16 mg/L (≈ 21.8 µM) | 16 mg/L (≈ 21.8 µM) | MIC50 ([1]; S. pneumoniae mefA, n=39 isolates, read-out: MIC50): 8 mg/L (≈ 10.9 µM); MIC50 ([4]; M. catarrhalis, n=30 isolates, read-out: MIC50): 0.25 mg/L (≈ 0.341 µM); MIC50 [8, 25]: > 64 mg/L; MIC90 [8, 26]: > 64 mg/L; MIC50 [10, 27]: > 64 mg/L; MIC90 [10, 28]: > 64 mg/L
5 | CC[C@H]1OC(=O)[C@H](C)C(=O)[C@H](C)[C@@H](O[C@@H]2O[C@H](C)C[C@H](N(C)C)[C@H]2O)[C@](C)(OC)C[C@@H](C)C(=O)[C@H](C)[C@H]2N(CCCCn3cnc(-c4cccnc4)c3)C(=O)O[C@]12C [telithromycin] | ≦0.06-0.5 μg/mL | 0.125 mg/L (≈ 0.154 µM) | 0.016 to 0.03 mg/L | 0.016 mg/L (≈ 0.0197 µM) | 0.016 mg/L (≈ 0.0197 µM) | 0.25 to 4 mg/L | 0.006 to 0.5 mg/L | 0.125 mg/L (≈ 0.154 µM) | 0.25 to 2 mg/L | 8 mg/L (≈ 9.85 µM) | ≦0.0625-1 μg/mL | ≦0.0625-1 μg/mL | 0.5 mg/L (≈ 0.616 µM) | 0.5 mg/L (≈ 0.616 µM) | 0.5 mg/L (≈ 0.616 µM) | 1 mg/L (≈ 1.23 µM) | 4 mg/L (≈ 4.93 µM) | 0.25 mg/L (≈ 0.308 µM) | 8 mg/L (≈ 9.85 µM) | 8 mg/L (≈ 9.85 µM) | MIC50 [8, 25]: 0.5 mg/L (≈ 0.616 µM); MIC90 [8, 26]: 0.5 mg/L (≈ 0.616 µM); MIC50 [10, 27]: ≤ 0.0625 mg/L; MIC90 [10, 28]: 0.5 mg/L (≈ 0.616 µM)
